Reference: the NIST ThermoML archive (doi:10.1021/je049691v)

Test: xn = mol fraction of the nth substance listed
Settings: Liquid

CO [methanol] + O
Settings	mass density [kg/m3]
283.15 K, x2 = 0.08	813.74
283.15 K, x2 = 0.1581	827.14
283.15 K, x2 = 0.2401	842.01
283.15 K, x2 = 0.3206	857.15
283.15 K, x2 = 0.3987	872.39
283.15 K, x2 = 0.4799	888.59
283.15 K, x2 = 0.56	905.16
283.15 K, x2 = 0.6407	922.05
283.15 K, x2 = 0.7201	938.63
283.15 K, x2 = 0.8	954.82
283.15 K, x2 = 0.8801	970.45
283.15 K, x2 = 0.9603	988.05
288.15 K, x2 = 0.08	809.22
288.15 K, x2 = 0.1581	822.75
288.15 K, x2 = 0.2401	837.75
288.15 K, x2 = 0.3206	853.02
288.15 K, x2 = 0.3987	868.39
288.15 K, x2 = 0.4799	884.77
288.15 K, x2 = 0.56	901.56
288.15 K, x2 = 0.6407	918.74
288.15 K, x2 = 0.7201	935.71
288.15 K, x2 = 0.8	952.47
288.15 K, x2 = 0.8801	968.91
288.15 K, x2 = 0.9603	987.31
293.15 K, x2 = 0.08	804.67
293.15 K, x2 = 0.1581	818.33
293.15 K, x2 = 0.2401	833.45
293.15 K, x2 = 0.3206	848.84
293.15 K, x2 = 0.3987	864.35
293.15 K, x2 = 0.4799	880.88
293.15 K, x2 = 0.56	897.88
293.15 K, x2 = 0.6407	915.33
293.15 K, x2 = 0.7201	932.67
293.15 K, x2 = 0.8	949.98
293.15 K, x2 = 0.8801	967.17
293.15 K, x2 = 0.9603	986.29
298.15 K, x2 = 0.08	800.1
298.15 K, x2 = 0.1581	813.88
298.15 K, x2 = 0.2401	829.11
298.15 K, x2 = 0.3206	844.62
298.15 K, x2 = 0.3987	860.25
298.15 K, x2 = 0.4799	876.94
298.15 K, x2 = 0.56	894.14
298.15 K, x2 = 0.6407	911.85
298.15 K, x2 = 0.7201	929.54
298.15 K, x2 = 0.8	947.37
298.15 K, x2 = 0.8801	965.23
298.15 K, x2 = 0.9603	985.01
303.15 K, x2 = 0.08	795.52
303.15 K, x2 = 0.1581	809.4
303.15 K, x2 = 0.2401	824.74
303.15 K, x2 = 0.3206	840.35
303.15 K, x2 = 0.3987	856.1
303.15 K, x2 = 0.4799	872.93
303.15 K, x2 = 0.56	890.32
303.15 K, x2 = 0.6407	908.28
303.15 K, x2 = 0.7201	926.31
303.15 K, x2 = 0.8	944.61
303.15 K, x2 = 0.8801	963.12
303.15 K, x2 = 0.9603	983.49
308.15 K, x2 = 0.08	790.9
308.15 K, x2 = 0.1581	804.88
308.15 K, x2 = 0.2401	820.31
308.15 K, x2 = 0.3206	836.03
308.15 K, x2 = 0.3987	851.89
308.15 K, x2 = 0.4799	868.86
308.15 K, x2 = 0.56	886.42
308.15 K, x2 = 0.6407	904.62
308.15 K, x2 = 0.7201	922.97
308.15 K, x2 = 0.8	941.73
308.15 K, x2 = 0.8801	960.83
308.15 K, x2 = 0.9603	981.76
313.15 K, x2 = 0.08	786.24
313.15 K, x2 = 0.1581	800.3
313.15 K, x2 = 0.2401	815.84
313.15 K, x2 = 0.3206	831.64
313.15 K, x2 = 0.3987	847.61
313.15 K, x2 = 0.4799	864.71
313.15 K, x2 = 0.56	882.44
313.15 K, x2 = 0.6407	900.87
313.15 K, x2 = 0.7201	919.53
313.15 K, x2 = 0.8	938.72
313.15 K, x2 = 0.8801	958.38
313.15 K, x2 = 0.9603	979.82
318.15 K, x2 = 0.08	781.54
318.15 K, x2 = 0.1581	795.69
318.15 K, x2 = 0.2401	811.3
318.15 K, x2 = 0.3206	827.2
318.15 K, x2 = 0.3987	843.26
318.15 K, x2 = 0.4799	860.49
318.15 K, x2 = 0.56	878.38
318.15 K, x2 = 0.6407	897.03
318.15 K, x2 = 0.7201	915.98
318.15 K, x2 = 0.8	935.58
318.15 K, x2 = 0.8801	955.76
318.15 K, x2 = 0.9603	977.69
323.15 K, x2 = 0.08	776.8
323.15 K, x2 = 0.1581	791.04
323.15 K, x2 = 0.2401	806.71
323.15 K, x2 = 0.3206	822.69
323.15 K, x2 = 0.3987	838.85
323.15 K, x2 = 0.4799	856.2
323.15 K, x2 = 0.56	874.24
323.15 K, x2 = 0.6407	893.1
323.15 K, x2 = 0.7201	912.32
323.15 K, x2 = 0.8	932.31
323.15 K, x2 = 0.8801	952.99
323.15 K, x2 = 0.9603	975.39
328.15 K, x2 = 0.08	772.01
328.15 K, x2 = 0.1581	786.32
328.15 K, x2 = 0.2401	802.07
328.15 K, x2 = 0.3206	818.11
328.15 K, x2 = 0.3987	834.36
328.15 K, x2 = 0.4799	851.82
328.15 K, x2 = 0.56	870.01
328.15 K, x2 = 0.6407	889.07
328.15 K, x2 = 0.7201	908.56
328.15 K, x2 = 0.8	928.92
328.15 K, x2 = 0.8801	950.06
328.15 K, x2 = 0.9603	972.92
333.15 K, x2 = 0.08	767.16
333.15 K, x2 = 0.1581	781.54
333.15 K, x2 = 0.2401	797.35
333.15 K, x2 = 0.3206	813.44
333.15 K, x2 = 0.3987	829.79
333.15 K, x2 = 0.4799	847.36
333.15 K, x2 = 0.56	865.69
333.15 K, x2 = 0.6407	884.94
333.15 K, x2 = 0.7201	904.69
333.15 K, x2 = 0.8	925.41
333.15 K, x2 = 0.8801	947
333.15 K, x2 = 0.9603	970.28
338.15 K, x2 = 0.08	762.24
338.15 K, x2 = 0.1581	776.67
338.15 K, x2 = 0.2401	792.56
338.15 K, x2 = 0.3206	808.71
338.15 K, x2 = 0.3987	825.13
338.15 K, x2 = 0.4799	842.81
338.15 K, x2 = 0.56	861.28
338.15 K, x2 = 0.6407	880.72
338.15 K, x2 = 0.7201	900.71
338.15 K, x2 = 0.8	921.77
338.15 K, x2 = 0.8801	943.79
338.15 K, x2 = 0.9603	967.5
343.15 K, x2 = 0.08	757.24
343.15 K, x2 = 0.1581	771.74
343.15 K, x2 = 0.2401	787.68
343.15 K, x2 = 0.3206	803.91
343.15 K, x2 = 0.3987	820.39
343.15 K, x2 = 0.4799	838.17
343.15 K, x2 = 0.56	856.77
343.15 K, x2 = 0.6407	876.4
343.15 K, x2 = 0.7201	896.64
343.15 K, x2 = 0.8	918.02
343.15 K, x2 = 0.8801	940.45
343.15 K, x2 = 0.9603	964.57
348.15 K, x2 = 0.08	752.17
348.15 K, x2 = 0.1581	766.72
348.15 K, x2 = 0.2401	782.71
348.15 K, x2 = 0.3206	799
348.15 K, x2 = 0.3987	815.56
348.15 K, x2 = 0.4799	833.44
348.15 K, x2 = 0.56	852.18
348.15 K, x2 = 0.6407	871.97
348.15 K, x2 = 0.7201	892.45
348.15 K, x2 = 0.8	914.14
348.15 K, x2 = 0.8801	936.97
348.15 K, x2 = 0.9603	961.5
353.15 K, x2 = 0.08	747.01
353.15 K, x2 = 0.1581	761.6
353.15 K, x2 = 0.2401	777.65
353.15 K, x2 = 0.3206	794
353.15 K, x2 = 0.3987	810.62
353.15 K, x2 = 0.4799	828.62
353.15 K, x2 = 0.56	847.48
353.15 K, x2 = 0.6407	867.48
353.15 K, x2 = 0.7201	888.15
353.15 K, x2 = 0.8	910.15
353.15 K, x2 = 0.8801	933.37
353.15 K, x2 = 0.9603	958.3
